Converted amounts (≈) assume the structure as drawn. Where two headings read alike, the source gives them in different places.
Legend:
S. aureus ATCC 25923 = assay: Antimicrobial susceptibility (MIC), S. aureus; type: cell-based, Staphylococcus aureus; conditions: for MIC: Staphylococcus aureus, ATCC25923, S. aureus ATCC 25923, mean (n = 3)
Experimental: (§1) The susceptibility of bacterial strains S. aureus (ATCC 25923), E. coli (ATCC 25922) and P. aeruginosa (ATCC 27853) to antibiotics and compounds was determined according to previously reported protocols. Additional antimicrobial evaluation against MRSA (ATCC 43300) and C. albicans (ATCC 90028) was undertaken at the Community for Open Antimicrobial Drug Discovery at The University of Queensland (Australia) according to their standard protocols as reported previously.

MRSA ATCC 43300 = assay: Antimicrobial susceptibility (MIC), MRSA; type: cell-based; conditions: Staphylococcus aureus, read-out: MIC MRSA
Experimental: as §1

P. aeruginosa ATCC 27853 [1] = assay: Antimicrobial susceptibility (MIC), P. aeruginosa; type: cell-based; conditions: Pseudomonas aeruginosa
Experimental: as §1

E. coli ATCC 25922 = assay: Antimicrobial susceptibility (MIC), E. coli; type: cell-based; conditions: Escherichia coli, ATCC25922, mean (n = 3)
Experimental: as §1

C. albicans ATCC 90028 = assay: Antifungal susceptibility (MIC), C. albicans; type: cell-based; conditions: Candida albicans, ATCC90028, mean (n = 2)
Experimental: as §1

human red blood cells = assay: Hemolytic assay; type: cell-based; conditions: mean (n = 2)
Experimental: Hemolysis assays were conducted according to previously reported protocols.

P. aeruginosa ATCC 27853 [2] = assay: Antibiotic potentiation (MIC of antibiotics in the presence of synergizing compounds), P. aeruginosa; type: cell-based, Pseudomonas aeruginosa; conditions: concentration required to restore doxycycline activity at 2 µg/mL (4.5 µM) against P. aeruginosa ATCC 27853
[3] = Cytotoxicity assay HEK293; type: cell-based, human; conditions: human, HEK293 cells, mean (n = 2), read-out: Cyto. IC50 (concentration of compound at 50% cytotoxicity)
Experimental: Cytotoxicity assays were conducted according to previously reported protocols.

[4] = ATCC27853, mean (n = 3), read-out: MIC P. a

Structure (SMILES): COc1cccc2c(C(=O)C(=O)NCCCNCCCCCCCCCCCCNCCCNC(=O)C(=O)c3c[nH]c4c(OC)cccc34)c[nH]c12 [Compound 22e]
- S. aureus and MRSA MIC (range over both strains) (S. aureus ATCC 25923; S. aureus ATCC 25923 and MRSA, summary range in text): 0.26 to 3.125 µM
- MIC (S. aureus ATCC 25923): 3.12 µM (≈ 2.24 µg/mL)
- MIC (MRSA ATCC 43300; MRSA ATCC 43300, mean (n = 2)): ≤ 0.26 µM
- MIC (P. aeruginosa ATCC 27853 [1]; [4]): 800 µM
- MIC (E. coli ATCC 25922): 12.5 µM (≈ 8.96 µg/mL)
- MIC (C. albicans ATCC 90028): ≤ 0.26 µM
- Hem. HC10 (concentration of compound at 10% hemolytic activity) (human red blood cells): 0.93 µM
- Conc (µM) for Potentiation of doxycycline (P. aeruginosa ATCC 27853 [2]): 400 µM

Structure (SMILES): Cc1cccc2c(C(=O)C(=O)NCCCNCCCCCCCCCCNCCCNC(=O)C(=O)c3c[nH]c4c(C)cccc34)c[nH]c12.O=C(O)C(F)(F)F.O=C(O)C(F)(F)F [Compound 23d, N^1,N^10-Bis(3-(2-(7-methyl-1H-indol-3-yl)-2-oxoacetamido)propyl)decane-1,10-diaminium 2,2,2-trifluoroacetate]
- MIC (S. aureus ATCC 25923): 7.1 µM
- MIC (MRSA ATCC 43300; MRSA ATCC 43300, mean (n = 2)): ≤ 0.28 µM
- MIC (P. aeruginosa ATCC 27853 [1]; [4]): > 230 µM
- MIC (E. coli ATCC 25922): 14.1 µM
- MIC (C. albicans ATCC 90028): 18 µM
- IC50 [3]: > 36 µM
- Conc (µM) for Potentiation of doxycycline (P. aeruginosa ATCC 27853 [2]): 230 µM

Structure (SMILES): O=C(N[C@H](CO)[C@H](O)c1ccc([N+](=O)[O-])cc1)C(Cl)Cl [chloramphenicol, reference compound]
- MIC (S. aureus ATCC 25923): 1.5 to 3 µM (≈ 0.485 to 0.969 µg/mL)
- MIC (P. aeruginosa ATCC 27853 [1]; [4]): > 200 µM
- MIC (E. coli ATCC 25922): > 200 µM

Structure (SMILES): C[C@H]1c2cccc(O)c2C(=O)C2=C(O)[C@]3(O)C(=O)C(C(N)=O)=C(O)[C@@H](N(C)C)[C@@H]3[C@@H](O)[C@@H]21 [doxycycline, reference compound]
- MIC (P. aeruginosa ATCC 27853 [1]; [4]): 50 µM
- MIC (P. aeruginosa ATCC 27853 [1]; ATCC27853, read-out: observed MIC of doxycycline): 20 µg/mL
- MIC (E. coli ATCC 25922): 25 µM (≈ 11.1 µg/mL)

Structure (SMILES): CC[C@H]1OC(=O)[C@H](C)[C@@H](O[C@H]2C[C@@](C)(OC)[C@@H](O)[C@H](C)O2)[C@H](C)[C@@H](O[C@@H]2O[C@H](C)C[C@H](N(C)C)[C@H]2O)[C@](C)(O)C[C@@H](C)C(=O)[C@H](C)[C@@H](O)[C@]1(C)O [erythromycin, reference compound]
- MIC (P. aeruginosa ATCC 27853 [1]; [4]): > 200 µM
- MIC (E. coli ATCC 25922): > 200 µM

Structure (SMILES): OC(Cn1cncn1)(Cn1cncn1)c1ccc(F)cc1F [fluconazole, reference compound]
- MIC (C. albicans ATCC 90028): 0.4 µM (≈ 0.123 µg/mL)

Structure (SMILES): CN(C)c1ccc(O)c2c1C[C@H]1C[C@H]3[C@H](N(C)C)C(O)=C(C(N)=O)C(=O)[C@@]3(O)C(O)=C1C2=O [minocycline, reference compound]
- MIC (P. aeruginosa ATCC 27853 [1]; [4]): 70 µM

Structure (SMILES): CCn1cc(C(=O)O)c(=O)c2ccc(C)nc21 [nalidixic acid, reference compound]
- MIC (P. aeruginosa ATCC 27853 [1]; [4]): > 200 µM
- MIC (E. coli ATCC 25922): > 200 µM

Structure (SMILES): [H]/N=C(/N)N[C@H]1[C@H](O)[C@@H](O)[C@H](O[C@@H]2O[C@@H](C)[C@](O)(C=O)[C@H]2O[C@@H]2O[C@@H](CO)[C@H](O)[C@@H](O)[C@@H]2NC)[C@@H](N/C(N)=N\[H])[C@@H]1O [streptomycin, reference compound]
- MIC (S. aureus ATCC 25923): 21.5 µM (≈ 12.5 µg/mL)
- MIC (P. aeruginosa ATCC 27853 [1]; [4]): 21.5 µM
- MIC (E. coli ATCC 25922): 21.5 µM (≈ 12.5 µg/mL)

Structure (SMILES): CC/C(=C(\c1ccccc1)c1ccc(OCCN(C)C)cc1)c1ccccc1 [tamoxifen, reference compound]
- IC50 [3]: 24 µM

Structure (SMILES): CN[C@H](CC(C)C)C(=O)N[C@H]1C(=O)N[C@@H](CC(N)=O)C(=O)N[C@H]2C(=O)N[C@H]3C(=O)N[C@H](C(=O)N[C@H](C(=O)O)c4cc(O)cc(O)c4-c4cc3ccc4O)[C@H](O)c3ccc(c(Cl)c3)Oc3cc2cc(c3O[C@@H]2O[C@H](CO)[C@@H](O)[C@H](O)[C@H]2O[C@H]2C[C@](C)(N)[C@H](O)[C@H](C)O2)Oc2ccc(cc2Cl)[C@H]1O [vancomycin, reference compound]
- MIC (MRSA ATCC 43300): 0.7 µM (≈ 1.01 µg/mL)

From publication PMC10302047, “Structure–Activity Relationship Studies of Indolglyoxyl-Polyamine Conjugates as Antimicrobials and Antibiotic Potentiators” (Pharmaceuticals, 2023)
